From patent publication US20220039395A1, “INSECT CONTROL AGENTS” (priority 2018, published 2022)
Entries after “also recorded” stand apart in the source; their conditions may differ. Numbered stars: 1 amine (or outer) side, 2 acyl side, 3 side chain; on linkers, the order of the positions; unused ones are H or OH. Square brackets hold non-standard residues; d marks the D form. Ends that are not written are not given here. Suc = O=C(CCC(=O)[*:2])[*:1]; β3hL = CC(C)C[C@H](N)CC(=O)O; 2Abf = not defined here

Assays:
Macrosiphum rosae = assay: Desiccation/starvation tolerance assay after peptide microinjection; assay type: in vivo; settings: Macrosiphum rosae, microinjection; for Documented effect on desiccation/starvation mortality: final concentration ×10^−5 M, relative to vehicle control; for LTime50 (h), test / Median IQR survival (h), test: ×10^−5 M, desiccation and starvation stress, test group
Method: (§1) Neuropeptides were administered to test aphids via microinjection to allow for rapid mass screening of neuropeptide analogue efficacy. For this, native neuropeptides were diluted in double distilled water (DDH2O) to a concentration of 1×10^−5 M. Neuropeptide analogues were diluted in DDH2O to the following concentrations: kinin analogues 1728 (2.5×10^−5 M), 2139 (3.5×10^−5 M), 2139-Ac (3.5×10^−5 M); CAP2b analogues 1895 (3.5×10^−5 M), 1896 (3.5×10^−5 M), 1902 (3.5×10^−5 M), 2089 (3.9×10^−5 M), 2123 (1.0×10^−5 M), 2125 (1.0×10^−5 M), 2129 (2.0×10^−5 M). Once at the desired concentration, neuropeptide solutions were administered to test aphids at an injection volume of 9 nl based on total haemolymph volume, to produce an approximate 1:20 dilution of injection volume to haemolymph. Injections were performed using a pulled glass needle and a Nanoject II Auto-Nanoliter Injector (Drummond Scientific Company, Broomall, Pa.). A vehicle control was set up for each treatment/day of experiments to account for variation in needle pulling. For this, control aphids were injected with 9 nl of DDH2O and subsequently exposed to the same experiments as aphids receiving the neuropeptide treatment. Neuropeptide treated and vehicle control aphids were subsequently used in the stress bioassays detailed below.
(§2) Anholocyclic adults of mixed age of either M. persicae or M. rosae were selected from the stock cultures and treated with a native neuropeptide or neuropeptide analogue via microinjection using the method detailed above. Treated and vehicle control aphids were allowed to recover on excised leaves of the host plant for 1 h before being placed in an empty ventilated microcage (L=4 cm, 0=9.5 cm) at densities of 10 per cage. In total, 30-40 aphids were treated for each neuropeptide treatment group and a further 30-40 for the associated vehicle control group. From the point of placement in the microcage (taken as 0 h), aphid survival was checked every hour during daylight hours and approximately every 4 h during night-time hours until the final aphid died. Survival data were subsequently analysed using a Log-rank (Mantel-Cox) text in GraphPad Prism version 7.0. LTime50 (the time taken to kill 50% of the test population) values were calculated via Probit Analysis in Minitab 17 (Minitab Inc., State College, Pa.).

Myzus persicae [1] = assay: as above; assay type: in vivo; settings: Myzus persicae, microinjection; for Documented effect on desiccation/starvation mortality: final concentration ×10^−5 M, relative to vehicle control; for LTime50 (h), test / Median ± IQR survival (h), test: ×10^−5 M, desiccation and starvation stress, test group
Method: as §1, §2

Aphids = assay: Feeding with peptides in artificial diet, mortality without other stress; assay type: in vivo, Myzus persicae; settings: for effect on mortality in the absence of additional stressors: no additional stress conditions
Method: A standard artificial diet for M. persicae was produced as described in Van Emden (2009) and provided the basal diet to which neuropeptide analogues were added for screening purposes. Neuropeptide analogues were diluted individually in the artificial diet to a pre-determined recommended concentration as follows: 1895 (3.5×10^−5 M) and 2019 (2.0×10^−5 M).
Feeding apparatus were constructed using a set-up developed by Sadeghi et al (2009). For this, a piece of Parafilm was stretched over a Plexiglas ring (h=4 cm, Ø=3 cm) and 100 μl of the artificial diet containing the desired neuropeptide analogue was pipette onto the Parafilm membrane. A second piece of Parafilm, stretched to 4 times the original thickness, was stretched over the original layer, sandwiching the artificial diet between two layers of Parafilm. A strip of Parafilm was wrapped around the circumference of the Plexiglas ring, sealing in the diet. A plastic ring (h=1.2 cm, Ø=3.4 cm) was subsequently placed over the Parafilm layer, creating a walled chamber in which to house test aphids in contact with the Parafilm layer containing the artificial diet. Finally, a small Petri dish (h=1 cm, Ø=3.6 cm), modified for ventilation with net cloth, was placed on top of each feeding apparatus to prevent aphid escape.
To obtain aphids for use in experiments, reproducing anholocyclic adults were placed on individual excised leaves of Chinese cabbage at densities of 5 adults per leaf and allowed to reproduce for 24 h. The stem of each excised leaf was held within a 0.5 mL Eppendorf tube containing water via a punctured hole in the Eppendorf lid, and placed individually within a microcage (L=4 cm, Ø=9.5 cm). Following 24 h, adults were removed and resultant first instar nymphs (<1 day old and synchronised in age to within 24 h) retained. Nymphs were allowed to develop on the Chinese cabbage for 5 days. On day 5, (3rd instar) nymphs were transferred onto the artificial diet containing a neuropeptide analogue at densities of 1 per feeding chamber and monitored daily until death. Aphids were transferred to fresh artificial diet (containing neuropeptide analogue) every 5 days. Life history traits recorded include age at first reproduction, number of nymphs produced per 24 h period, and lifespan. From these parameters, lifetime fecundity and daily fecundity were calculated. Control groups were set up involving aphids reared on the host plant, an artificial diet without a neuropeptide analogue, and an artificial diet containing the native CAPA neuropeptide.
Aphids were reared on artificial diet, alone or supplemented with peptide 2129, 2315, 2316 or 2320. A control group (no test peptide) was reared on a host plant. No other stress conditions were applied.
For peptides 2315, 2316 and 2320, mortality was assessed at 48, 72, 96, 120 and 144 hours. A group of 9 or 10 insects was used for each time point, and all experiments were performed at least 4 times.

Myzus persicae [2] = assay: Feeding of aphids with peptides in artificial diet; life span and fecundity; assay type: in vivo; settings: M. persicae on artificial diet containing the peptide; mean ± SE
Method: A standard artificial diet for M. persicae was produced as described in Van Emden (2009) and provided the basal diet to which neuropeptide analogues were added for screening purposes. Neuropeptide analogues were diluted individually in the artificial diet to a pre-determined recommended concentration as follows: 1895 (3.5×10^-5 M) and 2019 (2.0×10^-5 M). Feeding apparatus were constructed using a set-up developed by […] et al (2009). For this, a piece of Parafilm was stretched over a Plexiglas ring (h=4 cm, Ø=3 cm) and 100 μl of the artificial diet containing the desired neuropeptide analogue was pipette onto the Parafilm membrane. A second piece of Parafilm, stretched to 4 times the original thickness, was stretched over the original layer, sandwiching the artificial diet between two layers of Parafilm. A strip of Parafilm was wrapped around the circumference of the Plexiglas ring, sealing in the diet. A plastic ring (h=1.2 cm, Ø=3.4 cm) was subsequently placed over the Parafilm layer, creating a walled chamber in which to house test aphids in contact with the Parafilm layer containing the artificial diet. Finally, a small Petri dish (h=1 cm, Ø=3.6 cm), modified for ventilation with net cloth, was placed on top of each feeding apparatus to prevent aphid escape. To obtain aphids for use in experiments, reproducing anholocyclic adults were placed on individual excised leaves of Chinese cabbage at densities of 5 adults per leaf and allowed to reproduce for 24 h. The stem of each excised leaf was held within a 0.5 mL Eppendorf tube containing water via a punctured hole in the Eppendorf lid, and placed individually within a microcage (L=4 cm, Ø=9.5 cm). Following 24 h, adults were removed and resultant first instar nymphs (<1 day old and synchronised in age to within 24 h) retained. Nymphs were allowed to develop on the Chinese cabbage for 5 days. On day 5, (3rd instar) nymphs were transferred onto the artificial diet containing a neuropeptide analogue at densities of 1 per feeding chamber and monitored daily until death. Aphids were transferred to fresh artificial diet (containing neuropeptide analogue) every 5 days. Life history traits recorded include age at first reproduction, number of nymphs produced per 24 h period, and lifespan. From these parameters, lifetime fecundity and daily fecundity were calculated. Control groups were set up involving aphids reared on the host plant, an artificial diet without a neuropeptide analogue, and an artificial diet containing the native CAPA neuropeptide.

Substance	Documented effect on desiccation/starvation mortality (Macrosiphum rosae)	LTime50 (h), test (Macrosiphum rosae)	Median IQR survival (h), test (Macrosiphum rosae)	Documented effect on desiccation/starvation mortality (Myzus persicae [1])	LTime50 (h), test (Myzus persicae [1])	Median ± IQR survival (h), test (Myzus persicae [1])	further results
2Abf-Suc-FKPRL-NH2 ({2Abf-Suc}-FKPRL-NH2; reading uncertain; also: printed as 2Abf-Suc-FKPRL-NH2) [compound 1902]	No effect	28.9 | 26.4 h	27.0 ± 17.3 | 25.0 ± 10.0 h	No effect	22.2 | 21.8 h	24.0 ± 0 9.0 | 23.5 ± 7.0 h	–
2Abf-Suc-FTPRI-NH2 ({2Abf-Suc}-FTPRI-NH2; reading uncertain; also: printed as 2Abf-Suc-FTPRI-NH2) [compound 1896]	No effect	28.9 | 24.7 h	27.0 ± 17.3 | 23.0 ± 18.5 h	No effect	22.2 | 24.8 h	24.0 ± 0 9.0 | 25.0 ± 10.5 h	–
2Abf-Suc-FTPRV-NH2 ({2Abf-Suc}-FTPRV-NH2; reading uncertain; also: printed as 2Abf-Suc-FTPRV-NH2) [compound 2089]	No effect	23.2 | 16.4 h	23.0 ± 17.0 | 17.0 ± 21.3 h	No effect	10.9 | 13.0 h	11.0 ± 12.0 | 16.5 ± 10.3 h	–
2Abf-Suc-FT[Hyp]RV-NH2 [compound 2123]	No effect	21.6 | 19.1 h	24.0 ± 11.0 | 16.0 ± 18.0 h	No effect	24.3 | 21.1 h	25.0 ± 13.5 | 21.0 ± 13.5 h	–
ASGL[βhL]AFPRV-NH2 (ASGL[β3hL]AFPRV-NH2; N-terminus assumed; SMILES CC(C)C[C@@H](CC(=O)N[C@@H](C)C(=O)N[C@@H](Cc1ccccc1)C(=O)N1CCC[C@H]1C(=O)N[C@@H](CCCNC(=N)N)C(=O)N[C@H](C(N)=O)C(C)C)NC(=O)[C@H](CC(C)C)NC(=O)CNC(=O)[C@H](CO)NC(=O)[C@H](C)N) [compound 2316]	–	–	–	–	–	–	Dead (48 h) (Aphids; artificial diet supplemented with peptide, 48 h): 86.0%; Dead (72 h) (Aphids; artificial diet supplemented with peptide, 72 h): 88.0%; Dead (96 h) (Aphids; artificial diet supplemented with peptide, 96 h): 90.0%; Dead (120 h) (Aphids; artificial diet supplemented with peptide, 120 h): 92.0%; Dead (144 h) (Aphids; artificial diet supplemented with peptide, 144 h): 92.0%; effect on mortality in the absence of additional stressors (Aphids): increase mortality in the absence of additional stressors; effect on mortality in the absence of additional stressors (Aphids; listed as 2136): increase mortality in the absence of additional stress conditions
FF[Aib]WG-NH2 [compound 2139, reference compound]	non-significant survival curves; also recorded: No effect	31.7 | 29.8 h	29.5 ± 22.0 | 27.0 ± 26.0 h	non-significant survival curves; also recorded: No effect	18.3 | 22.4 h	22.0 ± 16.5 | 25.0 ± 21.0 h	–
GANMGLYAFPRVamide (GANMGLYAFPRV-NH2) [Native Capa, reference compound]	–	–	–	–	–	–	Age at 1st reproduction (Myzus persicae [2]): 11.2 ± 0.2 days; Ave. daily fecundity (Myzus persicae [2]): 1.6 ± 0.1 nymphs; Days as reproducing adult (Myzus persicae [2]): 7.6 ± 0.6; Life span (Myzus persicae [2]): 21.3 ± 0.7 days; Lifetime fecundity (Myzus persicae [2]): 12.0 ± 1.2 nymphs
Native Kinin: native kinin neuropeptide based on the kinin structure of Drosophila melanogaster, synthesized by Cambridge Peptides (NSVVLGKKQRFHSWG; ends and bridges not checked) [reference compound]	–	–	–	–	–	–	Age at 1st reproduction (Myzus persicae [2]): 11.1 ± 0.5 days; Ave. daily fecundity (Myzus persicae [2]): 1.6 ± 0.2 nymphs; Days as reproducing adult (Myzus persicae [2]): 5.9 ± 1.0; Life span (Myzus persicae [2]): 18.8 ± 1.3 days; Lifetime fecundity (Myzus persicae [2]): 9.7 ± 1.9 nymphs
[Aib]FF[Aib]WG-NH2 [compound 1728, reference compound]	No effect	31.7 | 31.6 h	29.5 ± 22.0 | 24.0 ± 28.5 h	No effect	18.3 | 25.0 h	22.0 ± 16.5 | 26.0 ± 23.5 h	–
